From ChEMBL document CHEMBL1148233, “Design and synthesis of macrocyclic inhibitors of phosphatase cdc25B” (Bioorg Med Chem Lett, 2004)

What was measured:
[1] = target: T1, M-phase inducer phosphatase 2 (Homo sapiens, UniProt P30305); assay: Inhibitory concentration to human cell division cycle 25B (Cdc25B)
T1 sequence (P30305 whole entry): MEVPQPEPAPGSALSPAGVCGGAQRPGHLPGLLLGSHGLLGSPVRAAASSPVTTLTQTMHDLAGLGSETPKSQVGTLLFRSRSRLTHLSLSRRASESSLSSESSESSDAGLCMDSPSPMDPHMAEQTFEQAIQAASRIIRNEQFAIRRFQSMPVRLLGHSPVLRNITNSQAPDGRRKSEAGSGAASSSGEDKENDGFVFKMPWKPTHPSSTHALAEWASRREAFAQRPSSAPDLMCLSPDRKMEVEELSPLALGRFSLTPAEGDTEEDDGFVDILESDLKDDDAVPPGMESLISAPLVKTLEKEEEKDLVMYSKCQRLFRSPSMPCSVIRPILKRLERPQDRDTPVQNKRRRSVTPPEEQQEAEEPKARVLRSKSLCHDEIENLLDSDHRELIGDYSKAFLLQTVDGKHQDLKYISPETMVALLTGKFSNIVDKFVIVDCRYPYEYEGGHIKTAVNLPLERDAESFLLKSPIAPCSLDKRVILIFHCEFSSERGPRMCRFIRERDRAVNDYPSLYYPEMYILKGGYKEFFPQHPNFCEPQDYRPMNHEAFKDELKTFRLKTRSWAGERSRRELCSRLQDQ

[2] = target: Serine/threonine-protein phosphatase 2A catalytic subunit alpha isoform (Bos taurus) (UniProt P67774); assay: Selectivity against protein phosphatase 2A
Serine/threonine-protein phosphatase 2A catalytic subunit alpha isoform (Bos taurus), sequence (P67774 whole entry, canonical isoform): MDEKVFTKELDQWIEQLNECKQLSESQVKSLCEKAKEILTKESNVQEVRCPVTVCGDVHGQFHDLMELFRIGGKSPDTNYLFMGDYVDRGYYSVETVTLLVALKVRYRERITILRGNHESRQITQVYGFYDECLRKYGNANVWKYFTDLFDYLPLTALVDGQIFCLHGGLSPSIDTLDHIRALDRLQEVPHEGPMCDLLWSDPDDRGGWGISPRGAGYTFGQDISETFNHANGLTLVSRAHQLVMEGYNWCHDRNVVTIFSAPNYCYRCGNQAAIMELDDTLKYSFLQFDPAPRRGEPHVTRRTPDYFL

[3] = target: T2, Tyrosine-protein phosphatase non-receptor type 1 (Homo sapiens) (UniProt P18031); assay: Selectivity against protein tyrosine phosphatase 1B
T2 sequence (whole entry): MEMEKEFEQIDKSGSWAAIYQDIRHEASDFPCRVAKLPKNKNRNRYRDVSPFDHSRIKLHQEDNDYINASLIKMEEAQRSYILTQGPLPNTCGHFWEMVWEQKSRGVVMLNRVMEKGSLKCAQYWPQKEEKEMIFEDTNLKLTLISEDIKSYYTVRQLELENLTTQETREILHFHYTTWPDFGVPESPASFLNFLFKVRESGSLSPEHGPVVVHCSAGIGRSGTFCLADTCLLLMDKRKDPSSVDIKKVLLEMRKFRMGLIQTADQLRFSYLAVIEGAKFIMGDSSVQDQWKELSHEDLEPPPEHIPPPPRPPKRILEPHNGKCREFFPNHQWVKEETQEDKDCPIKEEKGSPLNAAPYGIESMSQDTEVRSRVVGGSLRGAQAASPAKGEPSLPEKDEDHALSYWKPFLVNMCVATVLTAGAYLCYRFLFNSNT

[4] = target: Receptor-type tyrosine-protein phosphatase alpha (Homo sapiens) (UniProt P18433); assay: Selectivity against protein tyrosine phosphatase alpha
Receptor-type tyrosine-protein phosphatase alpha (Homo sapiens), sequence (P18433 20-802 limits assumed): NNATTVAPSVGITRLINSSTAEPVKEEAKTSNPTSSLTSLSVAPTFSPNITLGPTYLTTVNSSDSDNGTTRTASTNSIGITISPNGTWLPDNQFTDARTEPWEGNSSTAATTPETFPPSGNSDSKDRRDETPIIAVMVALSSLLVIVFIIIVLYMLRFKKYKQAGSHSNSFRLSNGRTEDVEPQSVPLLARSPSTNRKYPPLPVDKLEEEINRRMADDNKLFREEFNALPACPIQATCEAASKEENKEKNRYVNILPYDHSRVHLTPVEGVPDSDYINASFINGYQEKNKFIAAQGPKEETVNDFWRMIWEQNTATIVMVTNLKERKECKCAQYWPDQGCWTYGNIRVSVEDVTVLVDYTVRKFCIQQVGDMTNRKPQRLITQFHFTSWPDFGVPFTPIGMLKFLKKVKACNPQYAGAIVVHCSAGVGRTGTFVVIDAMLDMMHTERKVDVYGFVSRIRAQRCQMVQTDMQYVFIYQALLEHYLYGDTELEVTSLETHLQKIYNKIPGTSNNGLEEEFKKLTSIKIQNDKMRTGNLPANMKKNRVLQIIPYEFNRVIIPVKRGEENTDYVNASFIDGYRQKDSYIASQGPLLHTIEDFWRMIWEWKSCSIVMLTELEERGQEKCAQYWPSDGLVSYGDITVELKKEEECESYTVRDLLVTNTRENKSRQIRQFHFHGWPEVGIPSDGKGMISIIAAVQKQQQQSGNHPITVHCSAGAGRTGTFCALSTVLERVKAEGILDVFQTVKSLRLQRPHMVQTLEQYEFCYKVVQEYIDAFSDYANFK

SMILES	IC50 [1] [µM]	Selectivity [2] [µM]	Selectivity [3] [µM]	Selectivity [4] [µM]
CC(=O)O[C@H]1CCC(C)CCC[C@]2(C)[C@@H]([C@H](C)CCCC(C)C)CC[C@H]2c2ccc(cc2C(=O)O)C1 (some centres undefined)	7.8	> 30	> 30	> 30
C/C1=C/CC[C@]2(C)[C@@H]([C@H](C)COC(=O)c3ccccc3)CC[C@H]2c2ccc(cc2C(=O)O)C[C@@H](O)CC1	6.5	–	–	–
C/C1=C/CC[C@]2(C)[C@@H]([C@H](C)CCCC(C)C)CC[C@H]2c2ccc(cc2CO)C[C@@H](O)CC1	> 30	> 30	> 30	> 30
C/C1=C/CC[C@]2(C)[C@@H]([C@H](C)CCCC(C)C)CC[C@H]2c2ccc(cc2C(C)O)C[C@@](C)(O)CC1 (some centres undefined)	> 30	> 30	> 30	> 30
C/C1=C/CC[C@]2(C)[C@@H]([C@H](C)CCCC(C)C)CC[C@H]2c2ccc(cc2C(=O)O)CC(=O)CC1	8.5	> 30	> 30	> 30
C/C1=C/CC[C@]2(C)[C@@H]([C@H](C)CCCC(C)C)CC[C@H]2c2ccc(cc2C=O)C[C@@H](O)CC1	11	> 30	> 30	> 30
CC(C)CCC[C@@H](C)[C@H]1CC[C@H]2c3ccc(cc3C(=O)O)CC(=O)CCC(C)CCC[C@]12C (some centres undefined)	3.4	25	> 30	> 30
CC(=O)CC(=O)O[C@H]1CC/C(C)=C\CC[C@]2(C)[C@@H]([C@H](C)CCCC(C)C)CC[C@H]2c2ccc(cc2C(=O)O)C1	7.5	> 30	> 30	> 30
CC(=O)O[C@H]1CC/C(C)=C\CC[C@]2(C)[C@@H]([C@H](C)CCCC(C)C)CC[C@H]2c2ccc(cc2C=O)C1	4.9	> 30	> 30	> 30
COC(=O)C(=O)O[C@H]1CC/C(C)=C\CC[C@]2(C)[C@@H]([C@H](C)CCCC(C)C)CC[C@H]2c2ccc(cc2C(=O)O)C1	11	> 30	> 30	> 30
CC(=O)c1cc2ccc1[C@@H]1CC[C@H]([C@H](C)CCCC(C)C)[C@@]1(C)CC/C=C(/C)CC[C@](C)(O)C2	> 30	> 30	> 30	> 30
CC(=O)O[C@H]1CC[C@](C)(C2CC[C@@]3(C)C(CC[C@@H]3[C@H](C)CCCC(C)C)[C@@H]2CC(=O)O)C(=O)O1 (some centres undefined)	8.7	–	–	–
Cc1cc2ccc1[C@@H]1CC[C@H]([C@H](C)CCCC(C)C)[C@@]1(C)CCCC(C)CC[C@](C)(O)C2 (some centres undefined)	> 30	> 30	> 30	> 30
C=CC[C@]1(O)CC/C(C)=C\CC[C@]2(C)[C@@H]([C@H](C)CCCC(C)C)CC[C@H]2c2ccc(cc2C(=O)O)C1	9.3	> 30	> 30	> 30
CC(=O)O[C@@]1(C)CC/C(C)=C\CC[C@]2(C)[C@@H]([C@H](C)CCCC(C)C)CC[C@H]2c2ccc(cc2C(C)=O)C1	> 30	> 30	> 30	> 30
COC(=O)c1cc2ccc1[C@@H]1CC[C@H]([C@H](C)CCCC(C)C)[C@@]1(C)CC/C=C(/C)CC[C@H](O)C2	> 30	> 30	> 30	> 30
CC(=O)O[C@@]1(C)CCC(C)CCC[C@]2(C)[C@@H]([C@H](C)CCCC(C)C)CC[C@H]2c2ccc(cc2C)C1 (some centres undefined)	11	> 30	> 30	> 30
C/C1=C/CC[C@]2(C)[C@@H]([C@H](C)CCCC(C)C)CC[C@H]2c2ccc(cc2C(=O)O)CC(O)CC1 (some centres undefined)	7.9	> 30	> 30	> 30
C/C1=C/CC[C@]2(C)[C@@H]([C@H](C)CCCC(C)C)CC[C@H]2c2ccc(cc2C=O)C[C@H](Oc2ccccc2)CC1	3.5	> 30	> 30	> 30
CC(C)CCC[C@@H](C)[C@H]1CC[C@H]2c3ccc(cc3C(=O)O)CC(O)CCC(C)CCC[C@]12C (some centres undefined)	4.9	> 30	> 30	> 30
CC(C)CCC[C@@H](C)[C@H]1CC[C@H]2c3ccc(cc3CO)C[C@@H](O)CCC(C)CCC[C@]12C (some centres undefined)	> 30	> 30	> 30	> 30
COCc1cc2ccc1[C@@H]1CC[C@H]([C@H](C)CCCC(C)C)[C@@]1(C)CC/C=C(/C)CC[C@](C)(OC(C)=O)C2	29	> 30	> 30	> 30
CC(=O)O[C@@]1(C)CCC(C)CCC[C@]2(C)[C@@H]([C@H](C)CCCC(C)C)CC[C@H]2c2ccc(cc2CN2CCOCC2)C1 (some centres undefined)	> 30	> 30	> 30	> 30
COC(=O)c1cc2ccc1[C@@H]1CC[C@H]([C@H](C)CCCC(C)C)[C@@]1(C)CC/C=C(/C)CCC(=O)C2	> 30	> 30	> 30	> 30
CC(=O)O[C@H]1CC/C(C)=C\CC[C@]2(C)[C@@H]([C@H](C)CCCC(C)C)CC[C@H]2c2ccc(cc2C(=O)O)C1	5.6	> 30	> 30	> 30
CC(=O)O[C@@]1(C)CC/C(C)=C\CC[C@]2(C)[C@@H]([C@H](C)CCCC(C)C)CC[C@H]2c2ccc(cc2C(C)O)C1 (some centres undefined)	> 30	> 30	> 30	> 30
CC(=O)O[C@H]1CC/C(C)=C\CC[C@]2(C)[C@@H]([C@H](C)CCCC(C)C)CC[C@H]2c2ccc(cc2CO)C1	> 30	> 30	> 30	> 30
C=CC[C@@]1(O)CC/C(C)=C\CC[C@]2(C)[C@@H]([C@H](C)CCCC(C)C)CC[C@H]2c2ccc(cc2C(=O)O)C1	8.4	> 30	> 30	> 30
COC(=O)c1cc2ccc1[C@@H]1CC[C@H]([C@H](C)CCCC(C)C)[C@@]1(C)CC/C=C(/C)CC[C@H](OC(C)=O)C2	> 30	> 30	> 30	> 30
C/C1=C/CC[C@]2(C)[C@@H]([C@H](C)CCCC(C)C)CC[C@H]2c2ccc(cc2C(=O)O)C[C@H](Oc2ccccc2)CC1	7.1	> 30	> 30	> 30
